The text below walks through data of ChEMBL document CHEMBL3351609, “Pyrrolopyridines-quinazolines Inhibitors of PKR-Like ER Kinase” (ACS Med Chem Lett, 2015).

By IC50 is commonly meant the point on the concentration scale where inhibition reaches its midpoint.

In assay [1] the target is T1, Eukaryotic translation initiation factor 2-alpha kinase 3 (Homo sapiens, UniProt Q9NZJ5).
T1 sequence (Q9NZJ5 whole entry): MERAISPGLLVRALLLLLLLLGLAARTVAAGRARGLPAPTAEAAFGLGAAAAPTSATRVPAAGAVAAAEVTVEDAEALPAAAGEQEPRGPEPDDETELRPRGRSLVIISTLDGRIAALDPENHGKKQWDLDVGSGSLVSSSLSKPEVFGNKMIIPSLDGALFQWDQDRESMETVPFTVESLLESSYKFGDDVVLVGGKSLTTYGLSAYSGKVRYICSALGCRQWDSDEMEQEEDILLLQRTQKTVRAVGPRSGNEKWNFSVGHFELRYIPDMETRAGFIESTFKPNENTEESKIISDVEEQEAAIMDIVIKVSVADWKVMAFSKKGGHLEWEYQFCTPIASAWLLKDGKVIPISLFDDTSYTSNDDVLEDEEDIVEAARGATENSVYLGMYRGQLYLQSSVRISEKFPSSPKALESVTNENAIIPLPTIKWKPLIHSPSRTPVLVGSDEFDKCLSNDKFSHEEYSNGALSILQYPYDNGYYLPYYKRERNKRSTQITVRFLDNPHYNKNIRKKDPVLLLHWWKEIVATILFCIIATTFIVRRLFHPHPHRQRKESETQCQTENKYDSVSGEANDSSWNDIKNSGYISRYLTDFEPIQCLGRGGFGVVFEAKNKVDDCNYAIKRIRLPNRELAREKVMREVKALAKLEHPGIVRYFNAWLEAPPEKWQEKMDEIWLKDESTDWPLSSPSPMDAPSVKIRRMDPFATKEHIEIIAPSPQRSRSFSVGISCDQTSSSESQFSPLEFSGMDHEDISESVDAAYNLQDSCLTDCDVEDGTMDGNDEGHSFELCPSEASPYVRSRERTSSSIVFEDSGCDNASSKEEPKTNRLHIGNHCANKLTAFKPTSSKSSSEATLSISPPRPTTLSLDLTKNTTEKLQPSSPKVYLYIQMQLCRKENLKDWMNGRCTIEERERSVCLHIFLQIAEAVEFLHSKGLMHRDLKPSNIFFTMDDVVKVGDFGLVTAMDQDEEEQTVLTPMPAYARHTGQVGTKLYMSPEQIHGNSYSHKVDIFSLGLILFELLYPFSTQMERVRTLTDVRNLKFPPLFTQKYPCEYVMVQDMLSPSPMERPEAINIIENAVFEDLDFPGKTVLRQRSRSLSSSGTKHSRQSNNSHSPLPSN
In words: Inhibition of PERK (unknown origin) expressed in HEK293 cells assessed as inhibition of phosphorylation of GFP-eIF2 alpha by cell-based TR-FRET assay.

Assay [2] concerns the target T1, Eukaryotic translation initiation factor 2-alpha kinase 3. In words: Inhibition of recombinant GST-tagged PERK (unknown origin) by LanthaScreen assay.

For the compound `COc1cc2ncnc(Nc3ccc4c(c3)CCN4C(=O)Cc3coc4ccccc34)c2cc1OC`, in assay [1], the IC50 was greater than 31600 nM.
As for `COc1cc2ncnc(Nc3ccc4c(c3)CCN4C(=O)Cc3cc(F)ccc3F)c2cc1OC`, the IC50 in assay [2] was 0.398 nM; in assay [1] it was 50.1 nM.
In the case of `COc1cc2ncnc(Nc3ccc4c(c3)CCN4C(=O)Cn3ccc4ccccc43)c2cc1OC`, the IC50 in assay [1] was 316 nM.
With `COc1cc2ncnc(Nc3ccc4c(c3)CCN4C(=O)Cc3c[nH]c4ccccc34)c2cc1OC`, the results for the half-inhibitory concentration (IC50) in assay [2] and in assay [1] were 5.01 nM and 501 nM, respectively.
`COc1cc2ncnc(Nc3ccc4c(c3)CCN4C(=O)Cc3c(C)[nH]c4cc(F)ccc34)c2cc1OC`: the IC50 was 0.631 nM in assay [2] and 25.1 nM in assay [1].
